# In patent publication US20250388605A1, “HETEROBIFUNCTIONAL COMPOUNDS AND METHODS OF TREATING DISEASE” (Halda Therapeutics OpCo, Inc., priority 2022, published 2025):
# Legend:
# [1] = tested on: T-Rex 293 cell line SC3 cells having increased expression of androgen receptor protein due to exposure to doxycycline; experiment: Cellular growth inhibition, T-Rex 293 SC3 cells with doxycycline (increased androgen receptor expression), CellTiter-Glo; assay type: cell-based; details: T-Rex 293 SC3 cells with 10 ng/mL doxycycline (increased androgen receptor expression), 72 hours, CellTiter-Glo 2.0
# In short: (§1)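 Growth inhibition is measured in an inducible AR-expressing T-Rex 293 clone, SC3, cultured with or without 10 ng/mL doxycycline in hormone-depleted medium. Test compounds are applied for 72 hours. GI50 values derive from CellTiter-Glo 2.0 signal fitted by four-parameter regression.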
# [2] = tested on: T-Rex 293 cell line SC3 cells lacking increased expression of androgen receptor protein; experiment: Cellular growth inhibition, T-Rex 293 SC3 cells without doxycycline (no increased androgen receptor expression), CellTiter-Glo; assay type: cell-based; details: T-Rex 293 SC3 cells not exposed to doxycycline (no increased androgen receptor expression), 72 hours
# In short: as §1
# VCaP cells = experiment: Cellular growth inhibition assay for VCaP cells, CellTiter-Glo; assay type: cell-based, human; details: 72 hours
# In short: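 GI50 values come from four-parameter curve fits of luminescence data normalized to a zero baseline. Compound, in medium with 0.5% DMSO, was added one day after plating and left for 72 h before CellTiter-Glo 2.0 addition.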
# T47D cells = experiment: Cellular Growth Inhibition Assay for T47D Cells (CellTiter-Glo); assay type: cell-based, human; details: 72 hours
# In short: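 GI50 values derive from four-parameter regression of CellTiter-Glo 2.0 luminescence, using zero luminescence as baseline. Human breast cancer T47D cells (3000/well; DMEM, 10% FBS, 0.2 units/mL insulin) were exposed for 72 h to compound dilutions at 0.5% DMSO, with dosing starting 24 h after seeding.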
SMILES,GI50 (VCaP cells; Homo sapiens),GI50 (T47D cells; Homo sapiens),GI50 (VCaP cells),GI50 (T47D cells),GI50 [1],GI50 [2]
Cn1cc(-c2cc(N)ccc2Oc2cccc(OCCC3CCN(c4ncc(C(=O)N[C@H]5C(C)(C)[C@H](Oc6ccc(C#N)c(Cl)c6)C5(C)C)cn4)CC3)c2F)c2cc[nH]c2c1=O [Compound I-103],< 0.5 µM,1.5 to 3 µM,–,–,< 0.5 µM,> 3 µM
CC(C)c1ccc(Oc2cccc(N3CC(N4CCN(c5ncc(C(=O)N[C@H]6C(C)(C)[C@H](Oc7ccc(C#N)c(Cl)c7)C6(C)C)cn5)CC4)C3)c2F)c(-c2cn(C)c(=O)c3[nH]ccc23)c1 [Compound I-123],> 3 µM,0.5 to 1.5 µM,–,–,< 0.5 µM,> 3 µM
CCS(=O)(=O)Nc1ccc(Oc2cccc(C3CC(N(C)C4CCN(c5ncc(C(=O)N[C@H]6C(C)(C)[C@H](Oc7ccc(C#N)c(Cl)c7)C6(C)C)cn5)CC4)C3)c2)c(-c2cn(C)c(=O)c3[nH]ccc23)c1 (stereo partly shown) [Compound I-129],–,–,< 0.5 µM,< 0.5 µM,< 0.5 µM,< 0.5 µM
CC(C)c1ccc(Oc2cccc(CCOC3CCN(c4ncc(C(=O)N[C@H]5C(C)(C)[C@H](Oc6ccc(C#N)c(Cl)c6)C5(C)C)cn4)CC3)c2F)c(-c2cn(C)c(=O)c3[nH]ccc23)c1 [Compound I-148],–,–,< 0.5 µM,0.5 to 1.5 µM,< 0.5 µM,> 3 µM
CCS(=O)(=O)Nc1ccc(Oc2cccc(C3CC(C4CCN(c5ncc(C(=O)N[C@H]6C(C)(C)[C@H](Oc7ccc(C#N)c(Cl)c7)C6(C)C)cn5)CC4)C3)c2)c(-c2cn(C)c(=O)c3[nH]ccc23)c1 (stereo partly shown) [Compound I-157],< 0.5 µM,< 0.5 µM,–,–,< 0.5 µM,> 3 µM
CCS(=O)(=O)Nc1ccc(Oc2cccc(COC3CCN(c4ncc(C(=O)N[C@H]5C(C)(C)[C@H](Oc6ccc(C#N)c(Cl)c6)C5(C)C)cn4)CC3)c2F)c(-c2cn(C)c(=O)c3[nH]ccc23)c1 [Compound I-164],< 0.5 µM,< 0.5 µM,–,–,< 0.5 µM,> 3 µM
CCS(=O)(=O)Nc1ccc(Oc2cccc(CCC3CCN(c4ncc(C(=O)N[C@H]5C(C)(C)[C@H](Oc6ccc(C#N)c(Cl)c6)C5(C)C)cn4)CC3)c2F)c(-c2cn(C)c(=O)c3[nH]ccc23)c1 [Compound I-165],< 0.5 µM,< 0.5 µM,–,–,< 0.5 µM,> 3 µM
Cn1cc(-c2cc(NS(=O)(=O)C3CC3)ccc2Oc2cccc(N3CC(CC4CCN(c5ncc(C(=O)N[C@H]6C(C)(C)[C@H](Oc7ccc(C#N)c(Cl)c7)C6(C)C)cn5)CC4)C3)c2F)c2cc[nH]c2c1=O [Compound I-170],–,–,< 0.5 µM,0.5 to 1.5 µM,< 0.5 µM,> 3 µM
Cn1cc(-c2cc(NS(=O)(=O)C3CC3)ccc2Oc2cccc(N3CC(OC4CCN(c5ncc(C(=O)N[C@H]6C(C)(C)[C@H](Oc7ccc(C#N)c(Cl)c7)C6(C)C)cn5)CC4)C3)c2F)c2cc[nH]c2c1=O [Compound I-171],–,–,> 3 µM,< 0.5 µM,< 0.5 µM,> 3 µM
CCS(=O)(=O)Nc1ccc(Oc2cccc(N3CC(N(C)C4CCN(c5ncc(C(=O)N[C@H]6C(C)(C)[C@H](Oc7ccc(C#N)c(Cl)c7)C6(C)C)cn5)CC4)C3)c2F)c(-c2cn(C)c(=O)c3[nH]ccc23)c1 [Compound I-178],–,–,< 0.5 µM,< 0.5 µM,< 0.5 µM,< 0.5 µM
CCS(=O)(=O)Nc1ccc(Oc2cccc(C3CC(N4CCN(c5ncc(C(=O)N[C@H]6C(C)(C)[C@H](Oc7ccc(C#N)c(Cl)c7)C6(C)C)cn5)CC4)C3)c2)c(-c2cn(C)c(=O)c3[nH]ccc23)c1 (stereo partly shown) [Compound I-180],< 0.5 µM,< 0.5 µM,–,–,< 0.5 µM,> 3 µM
CCS(=O)(=O)Nc1ccc(Oc2cccc(N3CC(OC4CCN(c5ncc(C(=O)N[C@H]6C(C)(C)[C@H](Oc7ccc(C#N)c(Cl)c7)C6(C)C)cn5)CC4)C3)c2)c(-c2cn(C)c(=O)c3[nH]ccc23)c1 [Compound I-181],–,–,< 0.5 µM,< 0.5 µM,< 0.5 µM,> 3 µM
CCS(=O)(=O)Nc1ccc(Oc2cccc(N3CCC(C4CN(c5ncc(C(=O)N[C@H]6C(C)(C)[C@H](Oc7ccc(C#N)c(Cl)c7)C6(C)C)cn5)C4)CC3)c2)c(-c2cn(C)c(=O)c3[nH]ccc23)c1 [Compound I-182],< 0.5 µM,< 0.5 µM,–,–,< 0.5 µM,> 3 µM
"Cn1cc(-c2cc(S(C)(=O)=O)ccc2Oc2cccc(N3CC(CC4CCN(c5ncc(C(=O)NC6C(C)(C)C(Oc7ccc(C#N)c(Cl)c7)C6(C)C)cn5)CC4)C3)c2F)c2cc[nH]c2c1=O (stereo not shown) [Compound I-189, N-[3-(3-chloro-4-cyano-phenoxy)-2,2,4,4-tetramethyl-cyclobutyl]-2-[4-[[1-[2-fluoro-3-[2-(6-methyl-7-oxo-1H-pyrrolo[2,3-c]pyridin-4-yl)-4-methylsulfonyl-phenoxy]phenyl]azetidin-3-yl]methyl]-1-piperidyl]pyrimidine-5-carboxamide]",> 3 µM,< 0.5 µM,–,–,< 0.5 µM,> 3 µM
Cn1cc(-c2cc(S(C)(=O)=O)ccc2Oc2cccc(N3CC(OC4CCN(c5ncc(C(=O)N[C@H]6C(C)(C)[C@H](Oc7ccc(C#N)c(Cl)c7)C6(C)C)cn5)CC4)C3)c2F)c2cc[nH]c2c1=O [Compound I-191],–,–,< 0.5 µM,< 0.5 µM,< 0.5 µM,< 0.5 µM
CC(C)N(CCOC1CCN(c2ncc(C(=O)N[C@H]3C(C)(C)[C@H](Oc4ccc(C#N)c(Cl)c4)C3(C)C)cn2)CC1)c1cccc(Oc2ccc(C(C)(C)O)cc2-c2cn(C)c(=O)c3[nH]ccc23)c1F [Compound I-209],–,–,< 0.5 µM,< 0.5 µM,< 0.5 µM,< 0.5 µM

# Further lines, with some results ahead:
GI50 (VCaP cells; Homo sapiens),GI50 (T47D cells; Homo sapiens),GI50 (VCaP cells),GI50 (T47D cells),SMILES,GI50 [1],GI50 [2]
< 0.5 µM,< 0.5 µM,–,–,CCS(=O)(=O)Cc1ccc(Oc2cccc(N3CC(N4CCN(c5ncc(C(=O)N[C@H]6C(C)(C)[C@H](Oc7ccc(C#N)c(Cl)c7)C6(C)C)cn5)CC4)C3)c2)c(-c2cn(C)c(=O)c3[nH]ccc23)c1 [Compound I-114],< 0.5 µM,< 0.5 µM
–,–,< 0.5 µM,0.5 to 1.5 µM,Cn1cc(-c2ccccc2Oc2cccc(OCCN3CCN(c4ncc(C(=O)N[C@H]5C(C)(C)[C@H](Oc6ccc(C#N)c(Cl)c6)C5(C)C)cn4)CC3)c2F)c2cc[nH]c2c1=O [Compound I-115],< 0.5 µM,< 0.5 µM
–,–,< 0.5 µM,0.5 to 1.5 µM,Cn1cc(-c2ccccc2Oc2cccc(OCCC3CCN(c4ncc(C(=O)N[C@H]5C(C)(C)[C@H](Oc6ccc(C#N)c(Cl)c6)C5(C)C)cn4)CC3)c2F)c2cc[nH]c2c1=O [Compound I-117],< 0.5 µM,> 3 µM
> 3 µM,0.5 to 1.5 µM,–,–,"CC(C)c1ccc(Oc2cccc(N3CC(N4CCN(c5ncc(C(=O)N[C@H]6C(C)(C)[C@H](Oc7ccc(C#N)c(Cl)c7)C6(C)C)cn5)CC4)C3)c2)c(-c2cn(C)c(=O)c3[nH]ccc23)c1 [Compound I-122, N-[3-(3-chloro-4-cyano-phenoxy)-2,2,4,4-tetramethyl-cyclobutyl]-2-[4-[1-[3-[4-isopropyl-2-(6-methyl-7-oxo-1H-pyrrolo[2,3-c]pyridin-4-yl)phenoxy]phenyl]azetidin-3-yl]piperazin-1-yl]pyrimidine-5-carboxamide]",< 0.5 µM,> 3 µM
< 0.5 µM,1.5 to 3 µM,–,–,"CC(C)c1ccc(Oc2cccc(CCCN3CCN(c4ncc(C(=O)NC5C(C)(C)C(Oc6ccc(C#N)c(Cl)c6)C5(C)C)cn4)CC3)c2)c(-c2cn(C)c(=O)c3[nH]ccc23)c1 (stereo not shown) [Compound I-125, N-[3-(3-chloro-4-cyano-phenoxy)-2,2,4,4-tetramethyl-cyclobutyl]-2-[4-[3-[3-[4-isopropyl-2-(6-methyl-7-oxo-1H-pyrrolo[2,3-c]pyridin-4-yl)phenoxy]phenyl]propyl]piperazin-1-yl]pyrimidine-5-carboxamide]",< 0.5 µM,> 3 µM
< 0.5 µM,0.5 to 1.5 µM,–,–,"Cn1cc(-c2ccccc2Oc2cccc(CCCN3CCN(c4ncc(C(=O)NC5C(C)(C)C(Oc6ccc(C#N)c(Cl)c6)C5(C)C)cn4)CC3)c2)c2cc[nH]c2c1=O (stereo not shown) [Compound I-134, N-[3-(3-chloro-4-cyano-phenoxy)-2,2,4,4-tetramethyl-cyclobutyl]-2-[4-[3-[3-[2-(6-methyl-7-oxo-1H-pyrrolo[2,3-c]pyridin-4-yl)phenoxy]phenyl]propyl]piperazin-1-yl]pyrimidine-5-carboxamide]",< 0.5 µM,0.5 to 1.5 µM
–,–,< 0.5 µM,< 0.5 µM,Cn1cc(-c2ccccc2Oc2cccc(CCOC3CCN(c4ncc(C(=O)N[C@H]5C(C)(C)[C@H](Oc6ccc(C#N)c(Cl)c6)C5(C)C)cn4)CC3)c2)c2cc[nH]c2c1=O [Compound I-146],< 0.5 µM,> 3 µM
–,–,< 0.5 µM,0.5 to 1.5 µM,Cn1cc(-c2ccccc2Oc2cccc(CCOC3CCN(c4ncc(C(=O)N[C@H]5C(C)(C)[C@H](Oc6ccc(C#N)c(Cl)c6)C5(C)C)cn4)CC3)c2F)c2cc[nH]c2c1=O [Compound I-149],< 0.5 µM,< 0.5 µM
–,–,> 3 µM,0.5 to 1.5 µM,CC(C)c1ccc(Oc2cccc(OCCN3CCN(c4ncc(C(=O)N[C@H]5C(C)(C)[C@H](Oc6ccc(C#N)c(Cl)c6)C5(C)C)cn4)CC3)c2F)c(-c2cn(C)c(=O)c3[nH]ccc23)c1 [Compound I-179],< 0.5 µM,> 3 µM
